Source: patent US10202361B2, “Pyridazinones as herbicides” (E I DU PONT DE NEMOURS AND COMPANY, priority 2014, dated 2019)
Where two headings read alike, the source gives them in different places.

Assays:
Format in all cases: in vivo
[1] = test system: barnyardgrass (Echinochloa crus-galli); assay: Test C pre-/postemergence greenhouse herbicide test; settings: Barnyardgrass
Text: (§1) Seeds of plant species selected from blackgrass (Alopecurus myosuroides), bromegrass, downy (downy bromegrass, Bromus tectorum), foxtail, green (green foxtail, Setaria viridis), ryegrass, Italian (Italian ryegrass, Lolium multiflorum), wheat (winter wheat, Triticum aestivum), oat, wild (wild oat, Avena fatua), galium (catchweed bedstraw, Galium aparine), bermudagrass (Cynodon dactylon), surinam grass (Brachiaria decumbens), cocklebur (common cocklebur, Xanthium strumarium), corn (Zea mays), crabgrass, large (large crabgrass, Digitaria sanguinalis), cupgrass, woolly (woolly cupgrass, Eriochloa villosa), foxtail, giant (giant foxtail, Setaria faberii), goosegrass (Eleusine indica), johnsongrass (Sorghum halepense), kochia (Kochia scoparia), lambsquarters (Chenopodium album), morningglory (Ipomoea coccinea), nightshade (eastern black nightshade, Solanum ptycanthum), nutsedge, yellow (yellow nutsedge, Cyperus esculentus), pigweed (Amaranthus retroflexus), ragweed (common ragweed, Ambrosia elatior), soybean (Glycine max), sunflower (common oilseed sunflower, Helianthus annuus), Russian thistle (Salsola kali), barnyardgrass (Echinochloa crus-galli), oilseed rape (Brassica napus), waterhemp (common waterhemp, Amaranthus rudis), and velvetleaf (Abutilon theophrasti) were planted into a blend of loam soil and sand and treated preemergence with test chemicals formulated in a non-phytotoxic solvent mixture which included a surfactant.
(§2) At the same time, plants selected from these crop and weed species and also barley (winter barley, Hordeum vulgare), canarygrass (Phalaris minor), windgrass (Apera spica-venti), deadnettle (henbit deadnettle, Lamium amplexicaule), and chickweed (common chickweed, Stellaria media) were planted in pots containing Redi-Earth® planting medium (Scotts Company, 14111 Scottslawn Road, Marysville, Ohio 43041) comprising spaghnum peat moss, vermiculite, wetting agent and starter nutrients and treated with postemergence applications of test chemicals formulated in the same manner. Plants ranged in height from 2 to 18 cm (1- to 4-leaf stage) for postemergence treatments. Treated plants and controls were maintained in a greenhouse for 13 to 15 d, after which time all species were compared to controls and visually evaluated. Plant response ratings, summarized in Table C, are based on a scale of 0 to 100 where 0 is no effect and 100 is complete control. A dash (-) response means no test result.

[2] = test system: galium (catchweed bedstraw, Galium aparine); assay: as above; settings: Galium, read-out: Plant response rating; for pest or weed control at 62 g/ha: 62 g ai/ha; for pest or weed control at 125 g/ha: 125 g ai/ha; for pest or weed control at 250 g/ha: 250 g ai/ha
Text: as §1, §2

[3] = test system: wheat (Triticum aestivum); assay: Test A pre-/postemergence greenhouse herbicide test; settings: Triticum aestivum, 240 h, 0 to 100 scale (0 no effect, 100 complete control), approx. 10 d, read-out: Plant response rating, Wheat; for plant injury at 125 g/ha: 125 g ai/ha; for plant injury at 500 g/ha: 500 g ai/ha
In short: (§3)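 Greenhouse pot test, loam/sand soil. Pre: directed soil spray at seeding; post: foliar spray, 1–2 leaf, 2–10 cm height, same day. Read-out ~10 d: visual % control, 0–100 scale vs untreated.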

[4] = test system: velvetleaf (Abutilon theophrasti); assay: as above; settings: Abutilon theophrasti, 240 h, 0 to 100 scale (0 no effect, 100 complete control), approx. 10 d, read-out: Plant response rating, Velvetleaf; for pest or weed control at 125 g/ha: 125 g ai/ha; for pest or weed control at 500 g/ha: 500 g ai/ha
In short: as §3

[5] = test system: crabgrass, Large (large crabgrass, Digitaria sanguinalis); assay: as above; settings: Digitaria sanguinalis, 240 h, 0 to 100 scale (0 no effect, 100 complete control), approx. 10 d, read-out: Plant response rating, Crabgrass, Large; for pest or weed control at 125 g/ha: 125 g ai/ha; for pest or weed control at 500 g/ha: 500 g ai/ha
In short: as §3

[6] = test system: corn (Zea mays); assay: as above; settings: Zea mays, 240 h, 0 to 100 scale (0 no effect, 100 complete control), approx. 10 d; for Corn plant response rating (crop injury, 0 = no effect, 100 = complete kill) at 125 g/ha: 125 g ai/ha; for Corn plant response rating (crop injury, 0 = no effect, 100 = complete kill) at 500 g/ha: 500 g ai/ha
In short: as §3

[7] = test system: barnyardgrass (Echinochloa crus-galli); assay: as above; settings: Echinochloa crus-galli, 240 h, 0 to 100 scale (0 no effect, 100 complete control), approx. 10 d, read-out: Plant response rating, Barnyardgrass; for pest or weed control at 125 g/ha: 125 g ai/ha; for pest or weed control at 500 g/ha: 500 g ai/ha
In short: as §3

[8] = test system: pigweed (Amaranthus retroflexus); assay: as above; settings: Amaranthus retroflexus, 240 h, 0 to 100 scale (0 no effect, 100 complete control), approx. 10 d, read-out: Plant response rating, Pigweed; for pest or weed control at 125 g/ha: 125 g ai/ha; for pest or weed control at 500 g/ha: 500 g ai/ha
In short: as §3

[9] = test system: foxtail, giant (giant foxtail, Setaria faberii); assay: as above; settings: Setaria faberi, 240 h, 0 to 100 scale (0 no effect, 100 complete control), approx. 10 d, read-out: Plant response rating, Foxtail, Giant; for pest or weed control at 125 g/ha: 125 g ai/ha; for pest or weed control at 500 g/ha: 500 g ai/ha
In short: as §3

Cc1cc(=O)n(-c2ccc(C(F)(F)F)cc2)nc1Cc1ccnc(C(F)(F)F)c1 [Compound 2, 5-methyl-2-[4-(trifluoromethyl)phenyl]-6-[[2-(trifluoromethyl)-4-pyridinyl]methyl]-3(2H)-pyridazinone]
Plant response rating ([1]; Postemergence, 31 g ai/ha): 5 | Plant response rating ([1]; Postemergence, 62 g ai/ha): 10 | Plant response rating ([1]; Postemergence, 125 g ai/ha): 10 | Plant response rating ([1]; Postemergence, 250 g ai/ha): 25 | Plant response rating ([1]; Preemergence, 31 g ai/ha): 65 | Plant response rating ([1]; Preemergence, 62 g ai/ha): 70 | Plant response rating ([1]; Preemergence, 125 g ai/ha): 90 | Plant response rating ([1]; Preemergence, 250 g ai/ha): 98 | pest or weed control at 31 g/ha ([2]; post-emergence, Postemergence, 31 g ai/ha): 50% | pest or weed control at 62 g/ha ([2]; post-emergence, Postemergence): 80% | pest or weed control at 125 g/ha ([2]; post-emergence, Postemergence): 80% | pest or weed control at 250 g/ha ([2]; post-emergence, Postemergence): 85% | pest or weed control at 62 g/ha ([2]; pre-emergence, Preemergence): 85% | pest or weed control at 125 g/ha ([2]; pre-emergence, Preemergence): 98% | pest or weed control at 250 g/ha ([2]; pre-emergence, Preemergence): 100% | plant injury at 125 g/ha ([3]; post-emergence, Postemergence): 40% | plant injury at 500 g/ha ([3]; post-emergence, Postemergence): 80% | plant injury at 125 g/ha ([3]; pre-emergence, Preemergence): 0% | plant injury at 500 g/ha ([3]; pre-emergence, Preemergence): 40% | pest or weed control at 125 g/ha ([4]; post-emergence, Postemergence): 50% | pest or weed control at 500 g/ha ([4]; post-emergence, Postemergence): 100% | pest or weed control at 125 g/ha ([4]; pre-emergence, Preemergence): 20% | pest or weed control at 500 g/ha ([4]; pre-emergence, Preemergence): 50% | pest or weed control at 125 g/ha ([5]; post-emergence, Postemergence): 80% | pest or weed control at 500 g/ha ([5]; post-emergence, Postemergence): 100% | pest or weed control at 125 g/ha ([5]; pre-emergence, Preemergence): 100% | pest or weed control at 500 g/ha ([5]; pre-emergence, Preemergence): 100% | Corn plant response rating (crop injury, 0 = no effect, 100 = complete kill) at 125 g/ha ([6]; post-emergence, Postemergence): 70% | Corn plant response rating (crop injury, 0 = no effect, 100 = complete kill) at 500 g/ha ([6]; post-emergence, Postemergence): 90% | Corn plant response rating (crop injury, 0 = no effect, 100 = complete kill) at 125 g/ha ([6]; pre-emergence, Preemergence): 30% | Corn plant response rating (crop injury, 0 = no effect, 100 = complete kill) at 500 g/ha ([6]; pre-emergence, Preemergence): 50% | pest or weed control at 125 g/ha ([7]; post-emergence, Postemergence): 80% | pest or weed control at 500 g/ha ([7]; post-emergence, Postemergence): 90% | pest or weed control at 125 g/ha ([7]; pre-emergence, Preemergence): 80% | pest or weed control at 500 g/ha ([7]; pre-emergence, Preemergence): 100% | pest or weed control at 125 g/ha ([8]; post-emergence, Postemergence): 90% | pest or weed control at 500 g/ha ([8]; post-emergence, Postemergence): 100% | pest or weed control at 125 g/ha ([8]; pre-emergence, Preemergence): 100% | pest or weed control at 500 g/ha ([8]; pre-emergence, Preemergence): 100% | pest or weed control at 125 g/ha ([9]; post-emergence, Postemergence): 80% | pest or weed control at 500 g/ha ([9]; post-emergence, Postemergence): 100% | pest or weed control at 125 g/ha ([9]; pre-emergence, Preemergence): 100% | pest or weed control at 500 g/ha ([9]; pre-emergence, Preemergence): 100%
